Measured values published in paper PMC3269379, “The Host-Pathogen interaction of human cyclophilin A and HIV-1 Vpr requires specific N-terminal and novel C-terminal domains” (BMC Structural Biology, 2011).
Entries after “also recorded” stand apart in the source; their conditions may differ. Where a SMILES comes first, the peptide text is derived from it.

Columns and labels:
CypA [1] = target: T1, CypA (Homo sapiens, UniProt P62937); assay: SPR binding of Vpr and Vpr peptides to immobilized CypA; details: for binding to CypA in SPR sensorgrams (in words): peptides 0-8 μM over CM5 chip with 150 RU CypA (Figure 2)
T1 construct: made in house
Method: SPR [42-44] measurements were performed at 25°C on a Biacore T100 instrument (Biacore AB, Uppsala, Sweden) equipped with CM5 research-grade sensor chips. CypA was immobilized to 150, 180, 918 and 5003 RU, using standard amine-coupling chemistry. The reference flow cells were treated correspondingly except for CypA immobilization. The synthetic full length Vpr, as well as fragments and mutants thereof, were dissolved at four different concentrations in the running buffer (HBS-EP buffer pH 7.4; 10 mM HEPES, 150 mM NaCl, 3.4 mM EDTA and 0.005% surfacant). The samples were injected over the flow cells at a flow rate of 30 μl/min. Data were collected at 2.5 Hz during 60 s association and 180 s or 240 s dissociation phases, and were automatically corrected for bulk buffer effects and non-specific binding of Vpr peptides to the chip matrix. All SPR data was acquired from two individual series of experiments using four different analyte concentrations with a duplicate injection of one of the individual concentrations.
Affinity, association and dissociation rate constants were obtained from sensorgrams by the Biacore T100 evaluation software version 2.0.1 in accordance with the global curve fit model. Sensorgram data for the four different concentrations were fitted to several binding models including 1:1 (Langmuir) binding model (A+B ↔ AB), two-state reaction (conformational change) model (A+B ↔ AB ↔ AB*), heterogeneous ligand (HL) model (interaction one: A+B1 ↔ AB1; interaction two: A+B2 ↔ AB2) and bivalent analyte (BA) model (A+B ↔ AB; AB+B↔ABB). Kinetic constants were calculated for the best fitted model.

CypA [2] = target: T1, CypA; assay: Isothermal titration calorimetry of Vpr^75-90 binding to CypA; details: ITC; mean ± S.E of two titrations; read-out: Ka (converted)
Method: ITC was performed in a VP-ITC titration calorimeter (MicroCal Inc.). […] The mean of the heat from the last 5 injections was subtracted from the raw data to correct for experimental heat dilution. The binding isotherms were fitted to a one site binding model using the Origin v7 software (OriginLab). Chi-square minimization was performed iteratively to obtain the best-fit parameters.

T1 sequence (P62937 whole entry): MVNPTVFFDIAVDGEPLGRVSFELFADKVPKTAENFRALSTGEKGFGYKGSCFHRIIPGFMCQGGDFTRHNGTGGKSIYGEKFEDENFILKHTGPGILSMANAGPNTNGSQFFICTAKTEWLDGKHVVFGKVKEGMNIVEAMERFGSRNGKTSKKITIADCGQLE

Compound | binding to CypA in SPR sensorgrams (in words) (CypA [1]) | also measured
CC[C@H](C)[C@H](NC(=O)[C@H](CCCNC(=N)N)NC(=O)[C@H](Cc1ccccc1)NC(=O)[C@H](Cc1c[nH]cn1)NC(=O)[C@@H](NC(=O)[C@@H](N)Cc1ccccc1)[C@@H](C)CC)C(=O)NCC(=O)N[C@@H](CS)C(=O)N[C@@H](CCCNC(=N)N)C(=O)N[C@@H](Cc1c[nH]cn1)C(=O)O [Vpr^69-78] (H-FIHFRIGCRH-OH; N-terminus and C-terminus assumed) | interacted only weakly | 
CC[C@H](C)[C@H](NC(=O)[C@H](CCCNC(=N)N)NC(=O)[C@H](CO)NC(=O)[C@H](Cc1c[nH]cn1)NC(=O)[C@H](CCCNC(=N)N)NC(=O)[C@H](CS)NC(=O)CN)C(=O)NCC(=O)N[C@H](C(=O)N[C@H](C(=O)O)[C@@H](C)O)C(C)C [Vpr^75-84] (H-GCRHSRIGVT-OH; N-terminus and C-terminus assumed) | interacted only weakly; also recorded: fails to bind | 
CC[C@H](C)[C@H](NC(=O)CNC(=O)[C@@H](NC(=O)[C@H](C)NC(=O)[C@H](CO)NC(=O)[C@H](Cc1c[nH]cn1)NC(=O)[C@H](CCC(N)=O)NC(=O)[C@H](CS)NC(=O)CN)[C@@H](C)CC)C(=O)N[C@H](C(=O)N[C@@H](CCCNC(=N)N)C(=O)N[C@@H](CCC(N)=O)C(=O)N[C@@H](CCCNC(=N)N)C(=O)N[C@@H](CCCNC(=N)N)C(=O)N[C@@H](C)C(=O)N[C@@H](CCCNC(=N)N)C(=O)O)[C@@H](C)CC [Vpr^75-90 (R76Q, V83I, R80A, T84I)] (H-GCQHSAIGIIRQRRAR-OH) |  | Kd (CypA [1]): 2700 ± 1900 nM
CC[C@H](C)[C@H](NC(=O)CNC(=O)[C@@H](NC(=O)[C@H](CCCNC(=N)N)NC(=O)[C@H](CO)NC(=O)[C@H](Cc1c[nH]cn1)NC(=O)[C@H](CCC(N)=O)NC(=O)[C@H](CS)NC(=O)CN)[C@@H](C)CC)C(=O)N[C@H](C(=O)N[C@@H](CCCNC(=N)N)C(=O)N[C@@H](CCC(N)=O)C(=O)N[C@@H](CCCNC(=N)N)C(=O)N[C@@H](CCCNC(=N)N)C(=O)N[C@@H](C)C(=O)N[C@@H](CCCNC(=N)N)C(=O)O)[C@@H](C)CC [Vpr^75-90 (R76Q, V83I, T84I)] (H-GCQHSRIGIIRQRRAR-OH) |  | Kd (CypA [1]): 4700 ± 2600 nM
CC[C@H](C)[C@H](NC(=O)[C@H](CCCNC(=N)N)NC(=O)[C@H](CO)NC(=O)[C@H](Cc1c[nH]cn1)NC(=O)[C@H](CCCNC(=N)N)NC(=O)[C@H](CS)NC(=O)CN)C(=O)NCC(=O)N[C@H](C(=O)N[C@H](C(=O)N[C@@H](CCCNC(=N)N)C(=O)N[C@@H](CCC(N)=O)C(=O)N[C@@H](CCCNC(=N)N)C(=O)N[C@@H](CCCNC(=N)N)C(=O)N[C@@H](C)C(=O)N[C@@H](CCCNC(=N)N)C(=O)O)[C@@H](C)O)C(C)C [Vpr^75-90] |  | Kd (CypA [2]): 76.9 nM
CC[C@H](C)[C@H](N)C(=O)NCC(=O)N[C@H](C(=O)N[C@H](C(=O)N[C@@H](CCCNC(=N)N)C(=O)N[C@@H](CCC(N)=O)C(=O)N[C@@H](CCCNC(=N)N)C(=O)N[C@@H](CCCNC(=N)N)C(=O)N[C@@H](C)C(=O)N[C@@H](CCCNC(=N)N)C(=O)O)[C@@H](C)O)C(C)C [Vpr^81-90] (H-IGVTRQRRAR-OH; N-terminus and C-terminus assumed) | interacted only weakly | 
C[C@H](NC(=O)CNC(=O)[C@H](CC(N)=O)NC(=O)[C@H](CCCNC(=N)N)NC(=O)[C@H](C)NC(=O)[C@H](CCCNC(=N)N)NC(=O)[C@@H](N)CCCNC(=N)N)C(=O)N[C@@H](CO)C(=O)N[C@@H](CCCNC(=N)N)C(=O)N[C@@H](CO)C(=O)O [Vpr^87-96] (H-RRARNGASRS-OH; N-terminus and C-terminus assumed) | interacted only weakly | 
Vpr^30-40: N-terminal peptide containing the N-terminal binding region of Vpr to CypA (AVRHFPRIWLH) |  | binding to CypA in SPR sensorgrams, comparison (in words) (CypA [1]; analyte 1-8 μM, chip with 180 RU CypA (Figure 1B, C)): lower affinity
